The nature of assay [1]: Inhibition of LPS/ATP induced IL-1beta release in human THP-1 cells at 10 uM pretreated with LPS for 3 hrs followed by compound addition for 1 hr prior to ATP addition for another 1 hr by ELISA. It is filed as functional. The following applies: time 2 hrs. Details: scale not given: the % may be the effect or the level left.
Assay [2] deals with NACHT, LRR and PYD domains-containing protein 3 (Homo sapiens, UniProt Q96P20). Briefly: Inhibition of NLRP3 inflammasome in LPS-induced […] cells assessed as reduction in IL-1beta release preincubated for 1 hr followed by ATP addition and measured after 30 mins by ELISA. Format: cell-based. On the technique in general: In an ELISA, binding on a coated surface is turned into a signal by an enzyme label.

The target of assay [3] is T1, Glycogen synthase kinase-3 beta (Homo sapiens, UniProt P49841). Briefly: Inhibition of GSK3beta (unknown origin) expressed in Sf9 cells incubated for 30 mins in presence of [gamma32P]ATP by scintillation counting method.
Assay [4] addresses T1, Glycogen synthase kinase-3 beta. As to the kind of experiment: Inhibition of GST-tagged GSK3beta (unknown origin).

The structures appear in SMILES notation.

In general, IC50 refers to the concentration that inhibits the measured activity by half.

T1 sequence (P49841 whole entry): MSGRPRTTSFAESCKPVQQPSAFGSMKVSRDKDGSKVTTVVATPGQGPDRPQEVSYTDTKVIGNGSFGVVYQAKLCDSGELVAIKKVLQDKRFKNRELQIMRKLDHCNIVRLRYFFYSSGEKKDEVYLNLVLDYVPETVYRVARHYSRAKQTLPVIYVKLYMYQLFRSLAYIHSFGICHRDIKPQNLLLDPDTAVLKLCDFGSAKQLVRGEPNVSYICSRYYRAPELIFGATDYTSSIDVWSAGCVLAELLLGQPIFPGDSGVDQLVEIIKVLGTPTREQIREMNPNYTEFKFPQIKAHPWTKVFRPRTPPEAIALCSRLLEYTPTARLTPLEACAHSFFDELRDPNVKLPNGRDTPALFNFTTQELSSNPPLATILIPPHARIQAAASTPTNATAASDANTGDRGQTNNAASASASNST
Sequence of NACHT, LRR and PYD domains-containing protein 3 (Q96P20 whole entry, the tested form may be a part): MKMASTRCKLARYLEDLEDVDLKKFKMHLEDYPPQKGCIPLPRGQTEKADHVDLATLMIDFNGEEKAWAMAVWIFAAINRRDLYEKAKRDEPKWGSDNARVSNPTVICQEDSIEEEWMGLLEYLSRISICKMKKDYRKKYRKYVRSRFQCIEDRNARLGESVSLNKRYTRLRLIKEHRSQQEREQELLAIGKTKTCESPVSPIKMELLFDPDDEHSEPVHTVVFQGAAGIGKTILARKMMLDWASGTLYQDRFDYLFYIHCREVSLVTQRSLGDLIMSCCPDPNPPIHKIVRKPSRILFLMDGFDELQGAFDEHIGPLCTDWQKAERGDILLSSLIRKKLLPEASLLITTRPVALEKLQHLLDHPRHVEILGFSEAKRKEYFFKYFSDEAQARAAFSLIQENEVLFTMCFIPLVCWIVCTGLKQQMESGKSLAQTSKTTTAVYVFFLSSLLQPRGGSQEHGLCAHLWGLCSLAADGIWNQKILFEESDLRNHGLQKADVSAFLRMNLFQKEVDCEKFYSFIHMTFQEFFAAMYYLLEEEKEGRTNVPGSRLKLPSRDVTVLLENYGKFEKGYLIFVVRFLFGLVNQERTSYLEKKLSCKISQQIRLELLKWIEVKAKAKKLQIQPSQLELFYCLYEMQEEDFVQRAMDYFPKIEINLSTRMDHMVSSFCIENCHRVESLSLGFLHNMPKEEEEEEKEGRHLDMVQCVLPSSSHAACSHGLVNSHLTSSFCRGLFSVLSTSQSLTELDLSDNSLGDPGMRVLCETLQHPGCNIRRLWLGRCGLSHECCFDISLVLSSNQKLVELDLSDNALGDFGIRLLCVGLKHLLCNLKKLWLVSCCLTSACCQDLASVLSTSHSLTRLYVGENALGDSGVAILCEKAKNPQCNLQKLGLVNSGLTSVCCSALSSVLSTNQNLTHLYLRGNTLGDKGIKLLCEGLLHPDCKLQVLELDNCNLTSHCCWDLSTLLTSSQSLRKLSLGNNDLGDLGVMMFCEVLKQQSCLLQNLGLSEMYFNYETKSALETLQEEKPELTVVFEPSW

Consider `c1cc2[nH]c(-c3cscn3)nc2cn1`, for which, in assay [1], the Activity stood at 30%.

For `O=c1[nH]c(-c2ccc([N+](=O)[O-])cc2)nc2ccccc12`, the IC50 in assay [2] was 5000 nM.

With `O=C1Cc2c([nH]c3ccc([N+](=O)[O-])cc23)-c2ncccc2N1`, the IC50 in assay [3] and in assay [4] was 4 nM throughout.
